From ChEMBL document CHEMBL5303765, “Data for DCP probe BAY-7081” (2023)

Assays:
[1] = target: Casein kinase II subunit alpha' (Homo sapiens) (UniProt P19784); assay: CSNK2A2 SGC Tm panel (DSF); details: for ΔTm: Compound concentration 10.0 uM
[2] = target: Sodium-dependent dopamine transporter (Homo sapiens) (UniProt Q01959); details: Compound concentration 10.0 uM
[3] = target: T1, Serine/threonine-protein kinase ULK3 (Homo sapiens) (UniProt Q6PHR2); assay: ULK3 SGC Tm panel (DSF); details: for ΔTm: Compound concentration 10.0 uM
T1 sequence (whole entry): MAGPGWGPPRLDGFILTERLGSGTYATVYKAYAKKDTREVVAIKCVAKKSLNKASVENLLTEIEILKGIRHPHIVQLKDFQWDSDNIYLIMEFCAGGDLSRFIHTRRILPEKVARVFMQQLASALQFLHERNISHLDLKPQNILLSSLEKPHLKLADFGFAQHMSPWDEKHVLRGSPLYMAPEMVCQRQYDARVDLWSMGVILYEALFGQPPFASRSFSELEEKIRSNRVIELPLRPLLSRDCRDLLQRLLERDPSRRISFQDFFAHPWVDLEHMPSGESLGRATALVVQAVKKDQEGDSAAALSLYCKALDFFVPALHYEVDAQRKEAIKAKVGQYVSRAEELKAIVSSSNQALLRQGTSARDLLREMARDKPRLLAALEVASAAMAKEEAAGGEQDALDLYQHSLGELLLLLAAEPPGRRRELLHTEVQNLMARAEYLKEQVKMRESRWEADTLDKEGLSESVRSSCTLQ

[4] = target: T2, Serine/threonine-protein kinase PLK4 (Homo sapiens) (UniProt O00444); assay: PLK4 SGC Tm panel (DSF); details: for ΔTm: Compound concentration 10.0 uM
T2 sequence (whole entry): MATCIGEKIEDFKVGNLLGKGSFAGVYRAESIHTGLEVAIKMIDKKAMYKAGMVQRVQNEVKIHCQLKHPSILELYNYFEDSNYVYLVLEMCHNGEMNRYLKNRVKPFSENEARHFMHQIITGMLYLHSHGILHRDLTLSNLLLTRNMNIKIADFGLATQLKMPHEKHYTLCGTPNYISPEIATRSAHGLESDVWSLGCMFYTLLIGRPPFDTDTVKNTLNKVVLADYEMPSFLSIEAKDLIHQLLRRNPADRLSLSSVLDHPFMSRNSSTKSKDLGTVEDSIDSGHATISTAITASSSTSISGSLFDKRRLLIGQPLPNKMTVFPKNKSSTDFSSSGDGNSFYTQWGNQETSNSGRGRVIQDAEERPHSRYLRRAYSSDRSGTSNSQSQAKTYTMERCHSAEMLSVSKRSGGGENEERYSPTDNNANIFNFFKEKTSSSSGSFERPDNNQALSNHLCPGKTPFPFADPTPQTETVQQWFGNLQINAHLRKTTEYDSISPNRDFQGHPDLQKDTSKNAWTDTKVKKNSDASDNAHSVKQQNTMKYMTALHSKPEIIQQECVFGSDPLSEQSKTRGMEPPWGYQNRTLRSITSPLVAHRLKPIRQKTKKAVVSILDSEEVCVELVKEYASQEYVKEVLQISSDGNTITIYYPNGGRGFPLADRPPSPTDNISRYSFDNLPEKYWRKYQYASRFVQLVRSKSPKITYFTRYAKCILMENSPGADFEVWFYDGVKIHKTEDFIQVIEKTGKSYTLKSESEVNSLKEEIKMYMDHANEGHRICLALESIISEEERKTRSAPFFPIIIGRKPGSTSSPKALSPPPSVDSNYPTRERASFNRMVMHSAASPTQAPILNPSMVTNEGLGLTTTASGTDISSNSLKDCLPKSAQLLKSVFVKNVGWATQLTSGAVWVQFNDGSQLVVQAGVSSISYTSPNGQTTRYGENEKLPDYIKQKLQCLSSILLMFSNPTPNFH

[5] = target: Dual specificity mitogen-activated protein kinase kinase 1 (Homo sapiens) (UniProt Q02750); assay: MAP2K1 SGC Tm panel (DSF); details: for ΔTm: Compound concentration 10.0 uM
[6] = target: T3, Ephrin type-B receptor 1 (Homo sapiens) (UniProt P54762); assay: EPHB1 SGC Tm panel (DSF); details: for ΔTm: Compound concentration 10.0 uM
T3 sequence (whole entry): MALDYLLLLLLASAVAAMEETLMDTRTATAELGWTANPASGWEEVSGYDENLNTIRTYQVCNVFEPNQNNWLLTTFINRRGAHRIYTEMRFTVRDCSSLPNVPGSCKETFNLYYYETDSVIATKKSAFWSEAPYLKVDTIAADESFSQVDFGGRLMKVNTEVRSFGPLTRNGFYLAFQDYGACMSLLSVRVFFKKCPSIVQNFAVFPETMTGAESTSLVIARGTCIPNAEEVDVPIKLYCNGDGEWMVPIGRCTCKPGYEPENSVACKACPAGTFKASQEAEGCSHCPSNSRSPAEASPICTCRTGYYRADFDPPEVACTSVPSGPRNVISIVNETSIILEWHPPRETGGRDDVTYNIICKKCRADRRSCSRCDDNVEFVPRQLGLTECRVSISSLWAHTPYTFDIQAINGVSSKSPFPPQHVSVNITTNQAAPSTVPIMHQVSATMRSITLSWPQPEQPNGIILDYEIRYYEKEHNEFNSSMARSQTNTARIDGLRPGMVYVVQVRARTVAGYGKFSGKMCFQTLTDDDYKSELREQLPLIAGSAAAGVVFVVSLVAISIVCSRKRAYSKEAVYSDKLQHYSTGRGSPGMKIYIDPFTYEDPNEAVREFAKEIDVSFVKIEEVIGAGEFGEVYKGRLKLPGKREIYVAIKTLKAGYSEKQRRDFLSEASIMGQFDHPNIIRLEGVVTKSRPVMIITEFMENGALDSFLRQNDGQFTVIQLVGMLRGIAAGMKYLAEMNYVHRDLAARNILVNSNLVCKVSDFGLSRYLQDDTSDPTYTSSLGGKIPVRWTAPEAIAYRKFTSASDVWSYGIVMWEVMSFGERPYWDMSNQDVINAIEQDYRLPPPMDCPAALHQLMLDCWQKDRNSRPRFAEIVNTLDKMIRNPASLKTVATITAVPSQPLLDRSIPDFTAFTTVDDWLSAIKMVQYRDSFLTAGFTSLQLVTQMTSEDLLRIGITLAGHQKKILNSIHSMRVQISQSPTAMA

[7] = target: Kappa-type opioid receptor (Homo sapiens) (UniProt P41145); details: Compound concentration 10.0 uM
Chain of Kappa-type opioid receptor (Homo sapiens) (P41145 whole entry): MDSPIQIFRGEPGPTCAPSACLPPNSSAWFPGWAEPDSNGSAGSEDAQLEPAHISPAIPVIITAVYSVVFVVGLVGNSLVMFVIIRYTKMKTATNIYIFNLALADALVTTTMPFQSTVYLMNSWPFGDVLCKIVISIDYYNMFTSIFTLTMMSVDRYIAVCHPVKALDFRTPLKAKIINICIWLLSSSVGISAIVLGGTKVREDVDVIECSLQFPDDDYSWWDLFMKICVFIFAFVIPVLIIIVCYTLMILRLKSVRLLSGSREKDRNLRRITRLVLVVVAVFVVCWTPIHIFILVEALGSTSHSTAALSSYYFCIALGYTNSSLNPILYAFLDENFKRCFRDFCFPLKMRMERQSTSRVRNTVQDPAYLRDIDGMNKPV

Chain of Casein kinase II subunit alpha' (Homo sapiens) (P19784 whole entry, looked up): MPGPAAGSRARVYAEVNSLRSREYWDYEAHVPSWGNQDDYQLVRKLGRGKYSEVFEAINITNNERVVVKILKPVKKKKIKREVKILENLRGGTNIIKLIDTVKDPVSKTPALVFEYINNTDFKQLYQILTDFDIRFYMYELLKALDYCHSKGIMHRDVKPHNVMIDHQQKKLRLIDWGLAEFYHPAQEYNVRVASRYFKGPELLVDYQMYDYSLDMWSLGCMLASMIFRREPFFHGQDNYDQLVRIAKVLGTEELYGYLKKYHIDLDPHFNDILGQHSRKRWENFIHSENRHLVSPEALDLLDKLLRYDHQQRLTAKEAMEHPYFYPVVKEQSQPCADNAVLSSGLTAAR
Chain of Dual specificity mitogen-activated protein kinase kinase 1 (Homo sapiens) (Q02750 whole entry): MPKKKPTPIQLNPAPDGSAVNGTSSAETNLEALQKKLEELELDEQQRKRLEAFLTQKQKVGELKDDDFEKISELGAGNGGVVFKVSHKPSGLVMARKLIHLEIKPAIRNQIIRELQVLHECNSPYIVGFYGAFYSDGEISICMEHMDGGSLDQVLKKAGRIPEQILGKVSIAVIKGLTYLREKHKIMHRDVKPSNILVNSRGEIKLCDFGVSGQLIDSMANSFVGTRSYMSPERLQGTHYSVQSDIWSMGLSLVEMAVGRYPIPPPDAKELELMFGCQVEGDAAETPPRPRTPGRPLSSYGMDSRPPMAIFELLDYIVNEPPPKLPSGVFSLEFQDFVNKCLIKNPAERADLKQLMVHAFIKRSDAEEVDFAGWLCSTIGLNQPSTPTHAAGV
Chain of Sodium-dependent dopamine transporter (Homo sapiens) (Q01959 whole entry): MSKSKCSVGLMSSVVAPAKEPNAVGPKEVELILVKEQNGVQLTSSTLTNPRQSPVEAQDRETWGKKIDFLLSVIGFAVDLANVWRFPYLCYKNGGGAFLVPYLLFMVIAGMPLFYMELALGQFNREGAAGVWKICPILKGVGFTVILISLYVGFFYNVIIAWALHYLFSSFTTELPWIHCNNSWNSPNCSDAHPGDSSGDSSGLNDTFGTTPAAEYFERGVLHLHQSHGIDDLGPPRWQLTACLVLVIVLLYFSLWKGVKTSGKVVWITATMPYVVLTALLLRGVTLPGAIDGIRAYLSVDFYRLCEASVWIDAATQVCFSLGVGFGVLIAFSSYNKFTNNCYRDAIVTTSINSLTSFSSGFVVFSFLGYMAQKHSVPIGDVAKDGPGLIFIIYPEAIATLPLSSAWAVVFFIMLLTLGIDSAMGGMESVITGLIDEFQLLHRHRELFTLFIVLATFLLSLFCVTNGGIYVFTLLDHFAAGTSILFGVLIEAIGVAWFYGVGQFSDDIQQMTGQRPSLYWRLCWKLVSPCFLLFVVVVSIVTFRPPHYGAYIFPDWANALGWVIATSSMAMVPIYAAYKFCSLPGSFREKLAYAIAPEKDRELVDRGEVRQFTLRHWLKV

Compound	delta Tm Staurosporine positive control [1]	ΔTm [1]	inhibition [2] [%]	delta Tm Staurosporine positive control [3]	ΔTm [3]	delta Tm Staurosporine positive control [4]	ΔTm [4]	delta Tm Staurosporine positive control [5]	ΔTm [5]	delta Tm Staurosporine positive control [6]	ΔTm [6]	inhibition [7] [%]
CCC[C@@H]1CNCc2c1[nH]c(=O)c(C#N)c2N1CCC2(CC1)CC2	4.21	-0.242	7.47	19.1	-0.0429	19.7	-0.315	6.3	-0.203	5.62	0.00973	29.3
CCC[C@H]1CNCc2c1[nH]c(=O)c(C#N)c2N1CCC2(CC1)CC2	4.21	-0.244	3.42	19.1	-0.0592	19.7	-0.34	6.3	-0.252	5.62	0.0299	34.3
